According to article PMC6154534, “New Benzimidazole-1,2,4-Triazole Hybrid Compounds: Synthesis, Anticandidal Activity and Cytotoxicity Evaluation” (Molecules : A Journal of Synthetic Chemistry and Natural …, 2017):
≈ marks a conversion by molar mass, not a printed value.

Tests used:
C. krusei (ATCC 6258) = test: Anticandidal broth microdilution (EUCAST EDef 7.1), resazurin fluorometric readout; assay type: cell-based; settings: Pichia kudriavzevii, ATCC6258; ATCC 6258, RPMI pH 7, 24 h incubation
Method: (§1) Synthesized compounds (5a-5ad) were evaluated for anticandidal activity against C. albicans (ATCC 24433), C. krusei (ATCC 6258), C. parapsilosis (ATCC 22019) and C. [NT] 90030). MIC50 values were evaluated via fluorometric measurements, using resazurin solution [56, 57]. […] [NT] 90030). MIC readings were carried out twice for each chemical agent. The yeasts were maintained in RPMI after overnight incubation at 37 °C. The inocula of test microorganisms adjusted to match the turbidity of a MacFarland 0.5 standard tube as determined with a spectrophotometer and the final inoculum size was 0.5-2.5 × 10^5 cfu/mL for antifungal assay. Testing was carried out in RPMI at pH = 7 and the two-fold serial dilutions technique was applied. The last well on the microplates containing only inoculated broth was kept as controls and the last well with no growth of microorganism was recorded to represent the MIC50 expressed in μg/mL. For the antifungal assays, the compounds were dissolved in DMSO. […] The completed plates were incubated for 24 h. At the end of the incubation, resazurin (20 μg/mL) was added into each well to control whether the growth in wells. Then, plates were allowed to incubate for 2 h. MIC50 values were determined using a microplate reader at […].

C. albicans (ATCC 24433) = test: as above; assay type: cell-based; settings: Candida albicans, ATCC24433; ATCC 24433, RPMI pH 7, 24 h incubation
Method: as §1

[1] = test system: C. parapsilosis (ATCC 22019); test: as above; assay type: cell-based; settings: Lodderomyces parapsilosis, ATCC22019; ATCC 22019, RPMI pH 7, 24 h incubation; read-out: MIC50 C. parapsilopsis
Method: as §1

C. glabrata (ATCC 90030) = test: as above; assay type: cell-based; settings: Nakaseomyces glabratus, ATCC90030; ATCC 90030, RPMI pH 7, 24 h incubation
Method: as §1

[2] = test system: NIH/3T3 mouse embryonic fibroblast cell line (ATCC CRL1658); test: MTT cytotoxicity assay; assay type: cell-based; settings: NIH3T3, tested 800 to 0.78 µg/mL, read-out: IC50 on NIH/3T3 mouse embryonic fibroblast cell lines
Source text: Toxicity is a key cause of failure at all steps of the new drug development process. The most part of safety-related problems occur at preclinical phases to predict preclinical safety liabilities earlier in the new drug development process. This approach allows to design and/or selection of better drug candidates that have more potentials to be marketed drugs. […] Cytotoxicities of selected compounds (5m, 5o, 5r, 5w, 5y, 5ab, and 5ad), displaying strong anticandidal activity and good predicted pharmacokinetics, were determined against NIH/3T3 mouse embryonic fibroblast cell lines (ATCC CRL1658).
Cytotoxicity was tested using the NIH/3T3 mouse embryonic fibroblast cell line (ATCC® CRL-1658™, London, UK). NIH/3T3 cells were incubated according to the supplier’s recommendations and they were seeded at 1 × 10^4 cells into each well of 96-well plates. MTT assay was performed as previously described. The compounds were tested in a concentration range of 800 µg/mL and 0.78 µg/mL concentrations. Percent inhibition was calculated for each concentration according to the formula below, and IC50 values were determined by plotting a concentration–response curve of inhibition percent versus compound concentrations tested.

Candida species = test: Anticandidal broth microdilution, results summarised over all strains; assay type: cell-based; settings: summary over all four Candida strains; for MIC50: Candida, read-out: MIC50 against Candida species
Method: as §1

[3] = test system: ergosterol biosynthesis in C. albicans (ATCC 24433); test: Quantification of ergosterol level by LC-MS-MS; assay type: cell-based; settings: 0.78, 1.56 and 3.12 µg/mL, 16 h, negative control = 100%
Source text: The most of therapies, planned to treat fungal infections, target in the ergosterol biosynthesis pathway or its end product, ergosterol, a membrane sterol that is unique to fungi. It is the main sterol, and thus is essential for growth and normal membrane function of fungal cell. Besides serving as a bioregulator of membrane fluidity, asymmetry and integrity, it contributes to proper function of membrane-bound enzymes. […] Total intracellular sterols were extracted as reported by Breivik and Owades. […] Ergosterol standard (Product No. 45480, Sigma-Aldrich, Darmstadt, Germany) was used for quantification of ergosterol in both inhibitor-free (negative control) and inhibitor including samples. Ergosterol quantity in negative control samples was regarded as 100%. All concentrations were analyzed in quadruplicate, and the results were expressed as mean ± standard deviation (SD) (Figure 2).
Total intracellular sterols were extracted as reported by Breivik and Owades with slight modifications. […] The cultures were incubated for 16 h with shaking at 35 °C. […] Ergosterol quantity in negative control samples was regarded as 100%. All concentrations were analyzed in quadruplicate, and the results were expressed as mean ± standard deviation (SD).

Row | SMILES | MIC50 (C. krusei (ATCC 6258)) [µg/mL] | MIC50 (C. albicans (ATCC 24433)) [µg/mL] | MIC50 [1] [µg/mL] | MIC50 (C. glabrata (ATCC 90030)) [µg/mL] | MIC50 (Candida species) [µg/mL] | melting point [°C] | IC50 [2] [µg/mL] | level of ergosterol in C. albicans (in words) [3] | anticandidal activity against Candida strains (in words) (Candida species)
1 | CCn1c(SCC(=O)c2ccc(F)cc2)nnc1-c1ccc(-c2nc3ccc(F)cc3[nH]2)cc1 [Compound 5ab, 2-((4-Ethyl-5-(4-(6-fluoro-1H-benzimidazol-2-yl)phenyl)-4H-1,2,4-triazol-3-yl)thio)-1-(4-fluorophenyl)ethan-1-one] | 1.56 (≈ 3.28 µM) | 0.78 (≈ 1.64 µM) | 0.78 (≈ 1.64 µM) | 1.56 (≈ 3.28 µM) | 0.78 to 1.56 (≈ 1.64 to 3.28 µM) | 251 | 43.1 ± 2.88 (≈ 90.7 µM) |  | 
2 | Cn1c(SCC(=O)c2ccc(F)cc2F)nnc1-c1ccc(-c2nc3ccc(Cl)cc3[nH]2)cc1 [Compound 5o, 2-((5-(4-(6-Chloro-1H-benzimidazol-2-yl)phenyl)-4-methyl-4H-1,2,4-triazol-3-yl)thio)-1-(2,4-difluorophenyl)ethan-1-one] | 1.56 (≈ 3.15 µM) | 0.78 (≈ 1.57 µM) | 0.78 (≈ 1.57 µM) | 1.56 (≈ 3.15 µM) | 0.78 to 1.56 (≈ 1.57 to 3.15 µM) | 264.9 | 1.63 ± 0.02 (≈ 3.29 µM) |  | 
3 | CCn1c(SCC(=O)c2ccc(F)cc2)nnc1-c1ccc(-c2nc3ccc(Cl)cc3[nH]2)cc1 [Compound 5r, 2-((5-(4-(6-Chloro-1H-benzimidazol-2-yl)phenyl)-4-ethyl-4H-1,2,4-triazol-3-yl)thio)-1-(4-fluorophenyl)ethan-1-one] | 1.56 (≈ 3.17 µM) | 0.78 (≈ 1.59 µM) | 1.56 (≈ 3.17 µM) | 0.78 (≈ 1.59 µM) | 0.78 to 1.56 (≈ 1.59 to 3.17 µM) | 265.5 | 13.9 ± 0.69 (≈ 28.3 µM) |  | 
4 | CCn1c(SCC(=O)c2ccc(F)cc2F)nnc1-c1ccc(-c2nc3ccc(F)cc3[nH]2)cc1 [Compound 5ad, 1-(2,4-Difluorophenyl)-2-((4-ethyl-5-(4-(6-fluoro-1H-benzimidazol-2-yl)phenyl)-4H-1,2,4-triazol-3-yl)thio)ethan-1-one] | 1.56 (≈ 3.16 µM) | 0.78 (≈ 1.58 µM) | 0.78 (≈ 1.58 µM) | 0.78 (≈ 1.58 µM) | 0.78 to 1.56 (≈ 1.58 to 3.16 µM) | 234.2 | 120 ± 4.39 (≈ 242 µM) | significantly decreased the level of ergosterol at all tested concentrations | 
5 | Cn1c(SCC(=O)c2ccccc2)nnc1-c1ccc(-c2nc3ccc(F)cc3[nH]2)cc1 [Compound 5u, 2-((5-(4-(6-Fluoro-1H-benzimidazol-2-yl)phenyl)-4-methyl-4H-1,2,4-triazol-3-yl)thio)-1-phenylethan-1-one] | 50 (≈ 113 µM) | 12.5 (≈ 28.2 µM) | 50 (≈ 113 µM) | 25 (≈ 56.4 µM) |  | 277.1 |  |  | did not show strong activity
6 | CCn1c(SCC(=O)c2ccc(Cl)cc2Cl)nnc1-c1ccc(-c2nc3ccc(F)cc3[nH]2)cc1 [Compound 5ac, 1-(2,4-Dichlorophenyl)-2-((4-ethyl-5-(4-(6-fluoro-1H-benzimidazol-2-yl)phenyl)-4H-1,2,4-triazol-3-yl)thio)ethan-1-one] | 1.56 (≈ 2.96 µM) | 1.56 (≈ 2.96 µM) | 1.56 (≈ 2.96 µM) | 1.56 (≈ 2.96 µM) | 1.56 to 3.12 (≈ 2.96 to 5.93 µM) | 223.3 |  |  | 
7 | CCn1c(SCC(=O)c2ccc(Cl)cc2Cl)nnc1-c1ccc(-c2nc3ccc(Cl)cc3[nH]2)cc1 [Compound 5s, 2-((5-(4-(6-Chloro-1H-benzimidazol-2-yl)phenyl)-4-ethyl-4H-1,2,4-triazol-3-yl)thio)-1-(2,4-dichlorophenyl)ethan-1-one] | 3.12 (≈ 5.75 µM) | 1.56 (≈ 2.87 µM) | 1.56 (≈ 2.87 µM) | 3.12 (≈ 5.75 µM) | 1.56 to 3.12 (≈ 2.87 to 5.75 µM) | 192 |  |  | 

These reach a lower MIC50 (C. krusei (ATCC 6258)). Values come first.

Row | MIC50 (C. krusei (ATCC 6258)) [µg/mL] | MIC50 (C. albicans (ATCC 24433)) [µg/mL] | MIC50 [1] [µg/mL] | MIC50 (C. glabrata (ATCC 90030)) [µg/mL] | MIC50 (Candida species) [µg/mL] | melting point [°C] | SMILES | IC50 [2] [µg/mL] | level of ergosterol in C. albicans (in words) [3] | anticandidal activity against Candida strains (in words) (Candida species)
8 | 0.78 (≈ 1.63 µM) | 0.78 (≈ 1.63 µM) | 1.56 (≈ 3.25 µM) | 1.56 (≈ 3.25 µM) | 0.78 to 1.56 (≈ 1.63 to 3.25 µM) | 263.2 | Cn1c(SCC(=O)c2ccc(F)cc2F)nnc1-c1ccc(-c2nc3ccc(F)cc3[nH]2)cc1 [Compound 5y, 1-(2,4-Difluorophenyl)-2-((5-(4-(6-fluoro-1H-benzimidazol-2-yl)phenyl)-4-methyl-4H-1,2,4-triazol-3-yl)thio)ethan-1-one] | 11.1 ± 0.57 (≈ 23.2 µM) |  | 
9 | 0.78 (≈ 1.53 µM) | 0.78 (≈ 1.53 µM) | 0.78 (≈ 1.53 µM) | 1.56 (≈ 3.06 µM) | 0.78 to 1.56 (≈ 1.53 to 3.06 µM) | 250.6 | CCn1c(SCC(=O)c2ccc(F)cc2F)nnc1-c1ccc(-c2nc3ccc(Cl)cc3[nH]2)cc1 [Compound 5t, 2-((5-(4-(6-Chloro-1H-benzimidazol-2-yl)phenyl)-4-ethyl-4H-1,2,4-triazol-3-yl)thio)-1-(2,4-difluorophenyl)ethan-1-one] |  |  | 
10 | 0.78 (≈ 1.63 µM) | 0.78 (≈ 1.63 µM) | 0.78 (≈ 1.63 µM) | 1.56 (≈ 3.26 µM) | 0.78 to 1.56 (≈ 1.63 to 3.26 µM) | 274.5 | Cn1c(SCC(=O)c2ccc(F)cc2)nnc1-c1ccc(-c2nc3ccc(Cl)cc3[nH]2)cc1 [Compound 5m, 2-((5-(4-(6-Chloro-1H-benzimidazol-2-yl)phenyl)-4-methyl-4H-1,2,4-triazol-3-yl)thio)-1-(4-fluorophenyl)ethan-1-one] | 17.4 ± 0.89 (≈ 36.4 µM) |  | 
